# Reference: US8389020B1, “Immediate action and long-lasting formulation to control moss and liverwort” (Tara Innovations LLC, priority 2011, dated 2013)
# Tested on: moss
# Assay: Experiment 1: ferrous sulfate/lime mixtures applied to 6″×6″ moss areas in triplicate
# Assay type: in vivo
# Conditions: in mixture with lime
# Experimental: In order to establish the effective concentration of ferrous sulfate in the formulation, mixtures of ferrous sulfate and lime with a ferrous sulfate concentration between 0 to 60% (w/w) were prepared (Table I) and applied to 6″×6″ area in triplicate. Water was sprayed over the area. The day time high temperature was 40° F. during the experiment and the night temperature decreased to 28° F. In one day, area with 30% or more ferrous sulfate concentration treatment turned black burning all the moss (Table II). The areas with 10% and 20% […] treatment were black in a week. There was no effect of 100% lime on the moss. Thus, a minimum concentration of 10% is suitable for the satisfactory results within a week. When % ferrous sulfate was more than 30%, the moss turned black in one day.
smiles,measurement,value
"O.O.O.O.O.O.O.O=S(=O)([O-])[O-].[Fe+2] [ferrous sulfate, Ferrous sulfate septahydrate (FeSO4.7H2O)]",Minimum ferrous sulfate concentration suitable for satisfactory results within a week,10%
